The IC50 is the concentration needed to halve the response being measured. Read a high IC50 as weaker potency.

Bounds are passed on as bounds.

The target in the experiment is Protease (Human immunodeficiency virus 1, UniProt Q9YQ12). In words: Inhibition of HIV1 protease expressed in Escherichia coli incubated for 20 to 30 mins at room temperature using (Arg-Glu(EDANS)-Ser-Gln-Asn-Tyr-Pro-Ile-Val-Gln-Lys(DABCYL)-Arg) substrate by FRET method.
Sequence of Protease (Q9YQ12 whole entry): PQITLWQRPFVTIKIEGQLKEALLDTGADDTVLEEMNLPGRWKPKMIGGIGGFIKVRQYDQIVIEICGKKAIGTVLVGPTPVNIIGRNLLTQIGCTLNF
The compound `COc1ccc(S(=O)(=O)N(CC(C)C)C[C@@H](O)[C@H](Cc2ccccc2)NC(=O)CN(CC(=O)N2CCOCC2)c2c(C)cccc2C)cc1` registered a half-maximal inhibitory concentration (IC50) of 15 nM. That is a double-digit nanomolar value.
Turning to `COc1ccc(S(=O)(=O)N(CC(C)C)C[C@@H](O)[C@H](Cc2ccccc2)NC(=O)CN(CC(=O)N2CCOCC2)c2cccc(O)c2C)cc1`, inhibition was half-maximal at 1380 nM (IC50).
For the compound `COc1ccc(S(=O)(=O)N(CC(C)C)C[C@@H](O)[C@H](Cc2ccccc2)NC(=O)CN(CC(=O)N(C)C)c2cccc(O)c2C)cc1`, the IC50 was found to be 540 nM.
The compound `COc1ccc(N(CC(=O)N[C@@H](Cc2ccccc2)[C@H](O)CN(CC(C)C)S(=O)(=O)c2ccc(OC)cc2)CC(=O)N2CCOCC2)cc1` displayed a half-inhibitory concentration (IC50) of 290 nM.
For `COc1ccc(N(CC(=O)N[C@@H](Cc2ccccc2)[C@H](O)CN(CC(C)C)S(=O)(=O)c2ccc(OC)cc2)CC(=O)N(C)C)cc1` the value was 220 nM.
As to `COc1ccc(S(=O)(=O)N(CC(C)C)C[C@@H](O)[C@H](Cc2ccccc2)NC(=O)CN(CC(=O)N(C)C)c2c(C)cccc2C)cc1`, the IC50 is 180 nM.
For `Cc1c(O)cccc1N(CC(=O)N[C@@H](Cc1ccccc1)[C@H](O)CN(CC(C)C)S(=O)(=O)c1ccc([N+](=O)[O-])cc1)CC(=O)N1CCOCC1` the value was 6670 nM; for `Cc1c(O)cccc1N(CC(=O)N[C@@H](Cc1ccccc1)[C@H](O)CN(CC(C)C)S(=O)(=O)c1ccc([N+](=O)[O-])cc1)CC(=O)N(C)C`, 610 nM; for `COc1ccc(N(CC(=O)N[C@@H](Cc2ccccc2)[C@H](O)CN(CC(C)C)S(=O)(=O)c2ccc([N+](=O)[O-])cc2)CC(=O)N2CCOCC2)cc1`, 1020 nM.
Then `COc1ccc(N(CC(=O)N[C@@H](Cc2ccccc2)[C@H](O)CN(CC(C)C)S(=O)(=O)c2ccc([N+](=O)[O-])cc2)CC(=O)N(C)C)cc1`, with 210 nM; and `Cc1cccc(C)c1N(CC(=O)N[C@@H](Cc1ccccc1)[C@H](O)CN(CC(C)C)S(=O)(=O)c1ccc([N+](=O)[O-])cc1)CC(=O)N1CCOCC1`, with 73 nM.
Consider `Cc1cccc(C)c1N(CC(=O)N[C@@H](Cc1ccccc1)[C@H](O)CN(CC(C)C)S(=O)(=O)c1ccc([N+](=O)[O-])cc1)CC(=O)N(C)C`, for which the 50% inhibitory concentration (IC50) is 290 nM.
For `Cc1c(O)cccc1N(CC(=O)N[C@@H](Cc1ccccc1)[C@H](O)CN(CC(C)C)S(=O)(=O)c1ccc(N)cc1)CC(=O)N1CCOCC1`, inhibition was half-maximal at 2730 nM (IC50). This IC50 is about 9.4-fold higher than that of the compound before.
`Cc1c(O)cccc1N(CC(=O)N[C@@H](Cc1ccccc1)[C@H](O)CN(CC(C)C)S(=O)(=O)c1ccc(N)cc1)CC(=O)N(C)C` displayed an IC50 of 590 nM. This IC50 lies about 4.6-fold lower than the previous one.
For `COc1ccc(N(CC(=O)N[C@@H](Cc2ccccc2)[C@H](O)CN(CC(C)C)S(=O)(=O)c2ccc(N)cc2)CC(=O)N2CCOCC2)cc1` the value was 1360 nM; for `COc1ccc(N(CC(=O)N[C@@H](Cc2ccccc2)[C@H](O)CN(CC(C)C)S(=O)(=O)c2ccc(N)cc2)CC(=O)N(C)C)cc1`, 140 nM.
`Cc1cccc(C)c1N(CC(=O)N[C@@H](Cc1ccccc1)[C@H](O)CN(CC(C)C)S(=O)(=O)c1ccc(N)cc1)CC(=O)N1CCOCC1` gave a half-maximal inhibitory concentration (IC50) of 64 nM.
The compound `Cc1cccc(C)c1N(CC(=O)N[C@@H](Cc1ccccc1)[C@H](O)CN(CC(C)C)S(=O)(=O)c1ccc(N)cc1)CC(=O)N(C)C` gave an IC50 of 1360 nM.
Then `Cc1c(O)cccc1N(CC(=O)N[C@@H](Cc1ccccc1)[C@H](O)CN(CC(C)C)S(=O)(=O)c1ccc(CO)cc1)CC(=O)N1CCOCC1`, with 1210 nM; and `Cc1c(O)cccc1N(CC(=O)N[C@@H](Cc1ccccc1)[C@H](O)CN(CC(C)C)S(=O)(=O)c1ccc(CO)cc1)CC(=O)N(C)C`, with 150 nM; and `COc1ccc(N(CC(=O)N[C@@H](Cc2ccccc2)[C@H](O)CN(CC(C)C)S(=O)(=O)c2ccc(CO)cc2)CC(=O)N2CCOCC2)cc1`, with 890 nM.
For `COc1ccc(N(CC(=O)N[C@@H](Cc2ccccc2)[C@H](O)CN(CC(C)C)S(=O)(=O)c2ccc(CO)cc2)CC(=O)N(C)C)cc1` the value was 370 nM.
Then `Cc1cccc(C)c1N(CC(=O)N[C@@H](Cc1ccccc1)[C@H](O)CN(CC(C)C)S(=O)(=O)c1ccc(CO)cc1)CC(=O)N1CCOCC1`, with 73 nM.
In turn, `Cc1cccc(C)c1N(CC(=O)N[C@@H](Cc1ccccc1)[C@H](O)CN(CC(C)C)S(=O)(=O)c1ccc(CO)cc1)CC(=O)N(C)C` displayed an IC50 of 290 nM.
Then `COc1ccc(S(=O)(=O)N(CC(C)C)C[C@H](O)[C@H](Cc2ccccc2)NC(=O)CN(CC(=O)N2CCOCC2)c2cccc(O)c2C)cc1`, with over 20000 nM; and `COc1ccc(S(=O)(=O)N(CC(C)C)C[C@H](O)[C@H](Cc2ccccc2)NC(=O)CN(CC(=O)N(C)C)c2cccc(O)c2C)cc1`, with 5780 nM.
For `COc1ccc(N(CC(=O)N[C@@H](Cc2ccccc2)[C@@H](O)CN(CC(C)C)S(=O)(=O)c2ccc(OC)cc2)CC(=O)N2CCOCC2)cc1` the value was over 20000 nM; for `COc1ccc(N(CC(=O)N[C@@H](Cc2ccccc2)[C@@H](O)CN(CC(C)C)S(=O)(=O)c2ccc(OC)cc2)CC(=O)N(C)C)cc1`, over 20000 nM; for `COc1ccc(S(=O)(=O)N(CC(C)C)C[C@H](O)[C@H](Cc2ccccc2)NC(=O)CN(CC(=O)N2CCOCC2)c2c(C)cccc2C)cc1`, 8650 nM.
With `COc1ccc(S(=O)(=O)N(CC(C)C)C[C@H](O)[C@H](Cc2ccccc2)NC(=O)CN(CC(=O)N(C)C)c2c(C)cccc2C)cc1`, the IC50 is over 20000 nM.
`Cc1c(O)cccc1N(CC(=O)N[C@@H](Cc1ccccc1)[C@@H](O)CN(CC(C)C)S(=O)(=O)c1ccc([N+](=O)[O-])cc1)CC(=O)N1CCOCC1` returned an IC50 of over 20000 nM.
Then `Cc1c(O)cccc1N(CC(=O)N[C@@H](Cc1ccccc1)[C@@H](O)CN(CC(C)C)S(=O)(=O)c1ccc([N+](=O)[O-])cc1)CC(=O)N(C)C`, with 7410 nM; and `COc1ccc(N(CC(=O)N[C@@H](Cc2ccccc2)[C@@H](O)CN(CC(C)C)S(=O)(=O)c2ccc([N+](=O)[O-])cc2)CC(=O)N2CCOCC2)cc1`, with 19200 nM; and `COc1ccc(N(CC(=O)N[C@@H](Cc2ccccc2)[C@@H](O)CN(CC(C)C)S(=O)(=O)c2ccc([N+](=O)[O-])cc2)CC(=O)N(C)C)cc1`, with over 20000 nM.
Take `Cc1cccc(C)c1N(CC(=O)N[C@@H](Cc1ccccc1)[C@@H](O)CN(CC(C)C)S(=O)(=O)c1ccc([N+](=O)[O-])cc1)CC(=O)N1CCOCC1`: the IC50 worked out at 5870 nM.
Then `Cc1cccc(C)c1N(CC(=O)N[C@@H](Cc1ccccc1)[C@@H](O)CN(CC(C)C)S(=O)(=O)c1ccc([N+](=O)[O-])cc1)CC(=O)N(C)C`, with 5880 nM; and `Cc1c(O)cccc1N(CC(=O)N[C@@H](Cc1ccccc1)[C@@H](O)CN(CC(C)C)S(=O)(=O)c1ccc(N)cc1)CC(=O)N1CCOCC1`, with 16100 nM; and `Cc1c(O)cccc1N(CC(=O)N[C@@H](Cc1ccccc1)[C@@H](O)CN(CC(C)C)S(=O)(=O)c1ccc(N)cc1)CC(=O)N(C)C`, with 5920 nM.
For `COc1ccc(N(CC(=O)N[C@@H](Cc2ccccc2)[C@@H](O)CN(CC(C)C)S(=O)(=O)c2ccc(N)cc2)CC(=O)N2CCOCC2)cc1` the value was 6810 nM.
For `COc1ccc(N(CC(=O)N[C@@H](Cc2ccccc2)[C@@H](O)CN(CC(C)C)S(=O)(=O)c2ccc(N)cc2)CC(=O)N(C)C)cc1` the value was 6960 nM.
With `Cc1cccc(C)c1N(CC(=O)N[C@@H](Cc1ccccc1)[C@@H](O)CN(CC(C)C)S(=O)(=O)c1ccc(N)cc1)CC(=O)N1CCOCC1`, 2590 nM corresponded to half-maximal inhibition (IC50).
For `Cc1cccc(C)c1N(CC(=O)N[C@@H](Cc1ccccc1)[C@@H](O)CN(CC(C)C)S(=O)(=O)c1ccc(N)cc1)CC(=O)N(C)C` the value was 490 nM; for `Cc1c(O)cccc1N(CC(=O)N[C@@H](Cc1ccccc1)[C@@H](O)CN(CC(C)C)S(=O)(=O)c1ccc(CO)cc1)CC(=O)N1CCOCC1`, 6120 nM; for `Cc1c(O)cccc1N(CC(=O)N[C@@H](Cc1ccccc1)[C@@H](O)CN(CC(C)C)S(=O)(=O)c1ccc(CO)cc1)CC(=O)N(C)C`, over 20000 nM.
For `COc1ccc(N(CC(=O)N[C@@H](Cc2ccccc2)[C@@H](O)CN(CC(C)C)S(=O)(=O)c2ccc(CO)cc2)CC(=O)N2CCOCC2)cc1` the value was over 20000 nM.
For `COc1ccc(N(CC(=O)N[C@@H](Cc2ccccc2)[C@@H](O)CN(CC(C)C)S(=O)(=O)c2ccc(CO)cc2)CC(=O)N(C)C)cc1` the value was 5340 nM; for `Cc1cccc(C)c1N(CC(=O)N[C@@H](Cc1ccccc1)[C@@H](O)CN(CC(C)C)S(=O)(=O)c1ccc(CO)cc1)CC(=O)N1CCOCC1`, 8940 nM.
`Cc1cccc(C)c1N(CC(=O)N[C@@H](Cc1ccccc1)[C@@H](O)CN(CC(C)C)S(=O)(=O)c1ccc(CO)cc1)CC(=O)N(C)C`: half-maximal inhibition (IC50) was put at 17300 nM.

Source of the values: ChEMBL document CHEMBL3400103, “Synthesis and biological evaluation of novel HIV-1 protease inhibitors using tertiary amine as P2-ligands” (Bioorg Med Chem Lett, 2015).
